In US11713470B2, “Targeted gene therapies for pain and other neuro-related disorders” (University of Pittsburgh—Of the Commonwealth System of …, priority 2017, dated 2023):

Biological target: T1, PSAM-GlyR (Homo sapiens, UniProt P23415+P36544, L141F)
T1 construct: plasmid from Addgene (Sternson); host or cells: mouse dorsal horn neurons transduced with Cre-dependent AAV2/8 (Tlx3^Cre, CCK^Cre or Calr^Cre mice)
Experiment: Patch clamp electrophysiology in spinal cord slices of Tlx3^Cre mice injected with AAV8-Flex-PSAM-GlyR
Format: tissue-based, mouse
Experimental: FIGS. 6A and 6B. Positive and negative controls for PSAM-GlyR and PSEM^89S. (a) Schematic of PSAM-GlyR construct with GFP reporter used to make AAV8-hSyn-Flex-PSAM-GlyR. Virus was injected into Tlx3^Cre mice for electrophysiological slice recordings. (b) Electrode impaling a GFP^+ cell (also shown as DI, image) in a transverse slice of the dorsal horn from a Tlx3^Cre mouse injected with AAV8-hSyn-Flex-PSAMGlyR virus. […] (e) Control for the specificity of α-BTX-Alexa647. Contralateral dorsal horn lacks staining for α-BTX-Alexa647. Calretinin (green in original); PKCγ. Scale bar=50 μm. Box indicates area of inset. (f) In mice lacking PSAM-GlyR, mechanical allodynia and heat hypersensitivity induced by the carrageenan pain model are not altered by injection of PSEM^89S (30 mg/kg, i.p.) (p>0.999, n=4) (g) Punctate and dynamic allodynia induced by CFA are also not altered by injection of PSEM^89S (p>0.999, n=6). (h) In the mice lacking PSAM-GlyR, punctate and dynamic allodynia induced by the sural-SNI model are not altered by injection of PSEM^89S (30 mg/kg, i.p.) ([…], n=6). Data are mean±standard error of the mean (SEM). ***P<0.001; ns=not significant (i.e. p>0.05)
Prior to assessing the role of the neurons in somatosensory behavior, the ability of PSAM-GlyR to inhibit excitatory interneurons in the dorsal horn was tested using electrophysiological recordings in spinal cord slices. AAV8-Flex-PSAM-GlyR was injected intraspinally into the dorsal horn of P16 Tlx3^Cre mice. In this mouse line, the recombinase is strictly expressed by excitatory neurons located throughout laminae I-III. Three weeks later, neuronal excitability was measured using patch clamp electrophysiology in spinal cord slices in the presence and absence of PSEM^89S (FIG. 6(a-d)). To identify PSAM-GlyR^+ neurons, we identified cells expressing green fluorescent protein (GFP), which is also encoded by the PSAM-GlyR viral construct (FIG. 6(a,b)). […] We also tested the effect of the ligand PSEM^89S on pain behavior in mice lacking the receptor (FIG. 6(f,h)).

T1 sequence (P36544+P23415 fused P36544:L141F): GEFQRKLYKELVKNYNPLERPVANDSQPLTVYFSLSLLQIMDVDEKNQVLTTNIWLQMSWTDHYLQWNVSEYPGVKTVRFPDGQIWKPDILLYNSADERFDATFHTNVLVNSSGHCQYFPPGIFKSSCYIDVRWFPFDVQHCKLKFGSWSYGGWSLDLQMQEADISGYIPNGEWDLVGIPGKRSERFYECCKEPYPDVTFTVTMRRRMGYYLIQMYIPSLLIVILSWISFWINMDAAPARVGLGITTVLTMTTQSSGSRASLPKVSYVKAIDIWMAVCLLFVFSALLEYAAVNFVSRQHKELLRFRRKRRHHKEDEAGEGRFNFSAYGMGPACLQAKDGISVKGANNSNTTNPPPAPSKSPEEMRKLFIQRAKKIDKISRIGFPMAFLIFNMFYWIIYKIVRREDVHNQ

COc1ccc(OC)c(C(=O)NC2CN3CCC2CC3)c1 (stereo not drawn) [PSEM^89S]
decrease of membrane potential (30 μM PSEM^89S applied to spinal cord slices, GFP^+ neurons, n=3 cells from 2 mice): −7.3±3.4 mV
action potentials generated by current injection (30 μM, GFP^+ cells): completely blocked
hyperpolarization on bath application (30 μM, specifically in GFP-expressing cells): sustained hyperpolarization
